Data published in article PMC5011342, “A high throughput drug screening assay to identify compounds that promote oligodendrocyte differentiation using acutely dissociated and purified oligodendrocyte precursor cells” (BMC Research Notes, 2016).
Read-outs that look alike come from different tables or passages of the source.

Legend:
[1] = system: acutely dissociated and purified rat OPCs; experiment: Acute OL differentiation assay (MBP expression/cell, immunofluorescent image quantification); format: cell-based
Summary of the method: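 Oligodendrocyte precursor cells were enriched from P6-P7 Sprague–Dawley rat brains by immunopanning (RAN-2 and GalC depletion, O4 selection), plated at 5000 cells/well in serum-free, mitogen-free differentiation media on PDL/laminin 96-well view plates, centrifuged at 200×g, and pre-incubated 1–2 h before test compounds were added in quadruplicate. On DIV4, cells were fixed, stained for MBP and DAPI, imaged automatically, and MBP expression per cell was quantified.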

[2] = system: expanded OPCs; experiment: cells; details: for viability at 0.1 µM / viability at 1 µM / viability at 10 µM: Rattus norvegicus, 72 h
Summary of the method: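 Expanded OPCs seeded at 10,000 cells/well in differentiation media, then exposed to NCC library compounds at 10, 1 and 0.1 µM (quadruplicate, 0.1% DMSO) for three days. Viability read as alamarBlue fluorescence (560/590 nm) after 4 h at 37 °C; tunicamycin 5 ng/ml served as toxicity control.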

[3] = clinical trial of MS; cited from earlier work
[4] = system: transplanted hOPCs; parameters: method as in PMID 25716865; details: hypomyelinated shiverer/rag2 brain; cited from earlier work
[5] = Rattus norvegicus, 2 uM test compound, relative to quetiapine, sheet "All OLga data", read-out: OL differentiation, 2 uM (% Quet)
[6] = Rattus norvegicus, 10 uM test compound, relative to quetiapine, sheet "All OLga data", read-out: OL differentiation, 10 uM (% Quet)
[7] = read-out: 0.1 µM (% DMSO), alamarBlue viability of expanded OPCs, compound at 0.1 µM, sheet All Tox data
[8] = read-out: 1 µM (% DMSO), alamarBlue viability of expanded OPCs, compound at 1 µM, sheet All Tox data
[9] = read-out: 10 µM (% DMSO), alamarBlue viability of expanded OPCs, compound at 10 µM, sheet All Tox data
[10] = alamarBlue viability of expanded OPCs, compound at 0.1 µM, relative to DMSO control
[11] = alamarBlue viability of expanded OPCs, compound at 1 µM, relative to DMSO control
[12] = alamarBlue viability of expanded OPCs, compound at 10 µM, relative to DMSO control
[13] = read-out: 0.1 µM (% DMSO), alamarBlue viability, NCC library compound at 0.1 µM, sheet "All Tox data"
[14] = read-out: 1 µM (% DMSO), alamarBlue viability, NCC library compound at 1 µM, sheet "All Tox data"
[15] = read-out: 10 µM (% DMSO), alamarBlue viability, NCC library compound at 10 µM, sheet "All Tox data"
[16] = Rattus norvegicus, test compound at 2 uM, NCC library screen, sheet "All OLga data", relative to quetiapine, read-out: 2 uM (% Quet)
[17] = Rattus norvegicus, test compound at 10 uM, NCC library screen, sheet "All OLga data", relative to quetiapine, read-out: 10 uM (% Quet)
[18] = test compound at 2 uM, NCC library screen, sheet "All OLga data", relative to quetiapine
[19] = test compound at 10 uM, NCC library screen, sheet "All OLga data", relative to quetiapine
[20] = alamarBlue viability, NCC library compound at 0.1 µM, sheet "All Tox data"
[21] = alamarBlue viability, NCC library compound at 1 µM, sheet "All Tox data"
[22] = alamarBlue viability, NCC library compound at 10 µM, sheet "All Tox data"

Cc1ccc(-c2nc3ccc(C)cn3c2CC(=O)N(C)C)cc1 [Zolpidem]
activation at 2 µM [1, 5]: -14% | activation at 10 µM [1, 6]: -2.7% | viability at 0.1 µM [2, 7]: 86.9% | viability at 1 µM [2, 8]: 90.8% | viability at 10 µM [2, 9]: 93.5%

NS(=O)(=O)Cc1noc2ccccc12 [Zonisamide]
activation at 2 µM ([1]; Rattus norvegicus, test compound at 2 uM, MBP expression relative to quetiapine, NCC library screen, sheet "All OLga data", read-out: 2 uM (% Quet)): 5.9% | activation at 10 µM ([1]; Rattus norvegicus, test compound at 10 uM, MBP expression relative to quetiapine, NCC library screen, sheet "All OLga data", read-out: 10 uM (% Quet)): 4.3% | 0.1 µM (% DMSO) [2, 10]: 89.3 % DMSO | 1 µM (% DMSO) [2, 11]: 92.8 % DMSO | 10 µM (% DMSO) [2, 12]: 87.8 % DMSO

COc1cc(CNC(=O)CCCC/C=C\C(C)C)ccc1O [Zucapsaicin]
activation at 0.4 µM ([1]; Rattus norvegicus, 0.4 uM test compound, relative to quetiapine, sheet "All OLga data", read-out: OL differentiation, 0.4 uM (% Quet)): 13.2% | activation at 2 µM [1, 5]: -17% | viability at 0.1 µM [2, 7]: 85.6% | viability at 1 µM [2, 8]: 72% | viability at 10 µM [2, 9]: 36.9%

C[C@]12CC[C@@H]3c4ccc(O)cc4CC[C@H]3[C@@H]1C[C@@H](O)[C@@H]2O [estriol]
lesion numbers and volumes [3]: reducing the lesion numbers and volumes

N#Cc1ccc(C(c2ccc(C#N)cc2)n2cncn2)cc1 [letrozole]
activation at 2 µM [1, 5]: 1.2% | activation at 10 µM [1, 6]: -4.8% | viability at 0.1 µM [2, 7]: 92% | viability at 1 µM [2, 8]: 99.2% | viability at 10 µM [2, 9]: 101%

CC(=O)NC[C@H]1CN(c2ccc(N3CCOCC3)c(F)c2)C(=O)O1 [linezolid]
activation at 2 µM [1, 5]: 4.3% | activation at 10 µM [1, 6]: 7.1% | viability at 0.1 µM [2, 13]: 95.7% | viability at 1 µM [2, 14]: 94.1% | viability at 10 µM [2, 15]: 94.7%

CC(Oc1c(Cl)cccc1Cl)C1=NCCN1 (centres unmarked) [lofexidine]
activation at 2 µM [1, 16]: 9.5% | activation at 10 µM [1, 17]: 13.1% | viability at 0.1 µM [2, 13]: 88.5% | viability at 1 µM [2, 14]: 96% | viability at 10 µM [2, 15]: 80.6%

CC(C(=O)O)c1ccc(CC2CCCC2=O)cc1 (centres unmarked) [loxoprofen]
activation at 2 µM [1, 5]: 3.1% | activation at 10 µM [1, 6]: 10.9% | viability at 0.1 µM [2, 13]: 99.8% | viability at 1 µM [2, 14]: 92.5% | viability at 10 µM [2, 15]: 87.6%

O=C(O[C@H]1CN2CCC1CC2)N1CCc2ccccc2[C@@H]1c1ccccc1 [solifenacin]
oligodendrocyte differentiation of transplanted hOPCs [4]: promoted oligodendrocyte differentiation of transplanted hOPCs

NC(Cc1cc(I)c(Oc2cc(I)c(O)c(I)c2)c(I)c1)C(=O)O (centres unmarked) [thyroxine, reference compound]
promotion of OL differentiation (in words) ([1]; MBP expression versus 0.1 % DMSO negative control): able to promote OL differentiation at one or both concentrations tested | activation at 2 µM [1, 16]: -26.7% | activation at 10 µM [1, 17]: -186% | 0.1 µM (% DMSO) [2, 10]: 212.0 % DMSO | 1 µM (% DMSO) [2, 11]: 190.0 % DMSO | 10 µM (% DMSO) [2, 12]: 120.0 % DMSO

HTMT
2 uM (% Quet) [1, 18]: -16.4 % Quet | 10 uM (% Quet) [1, 19]: 21.8 % Quet | 0.1 µM (% DMSO) [2, 20]: 71.6 % DMSO | 1 µM (% DMSO) [2, 21]: 71.0 % DMSO | 10 µM (% DMSO) [2, 22]: 63.6 % DMSO

Methanesulfonamide
2 uM (% Quet) [1, 18]: -6.5 % Quet | 10 uM (% Quet) [1, 19]: 5.8 % Quet | 0.1 µM (% DMSO) [2, 20]: 118.1 % DMSO | 1 µM (% DMSO) [2, 21]: 132.7 % DMSO | 10 µM (% DMSO) [2, 22]: 132.9 % DMSO
